Where “and” joins values, the source holds several entries; their conditions need not be identical. Identical values can stand only once.
Key:
M230L-RTV = assay: Phenotypic susceptibility assay, M230L-RTV; type: cell-based, HIV-1; details: site-directed M230L alone
From the text: (§1) The resistance test vectors containing a functional luciferase gene cassette were constructed and host cells were transfected with the resistance test vector DNA. The resistant test vectors contained patient-derived reverse transcriptase and protease sequences that were either susceptible or resistant to the antiretroviral agents, such as nucleoside reverse transcriptase inhibitors, (NRTIs) non-nucleoside reverse transcriptase inhibitors […] protease inhibitors. The resistance test vector viral particles produced by transfecting the resistance test vector DNA into host cells, either in the presence or absence of PRIs, were used to infect target host cells grown either in the absence of NRTIs or NNRTIs, or in the presence of increasing concentrations of the drug. The amount of luciferase activity produced in infected target host cells in the presence of varying concentrations of drug was compared to the amount of luciferase produced in infected target host cells in the absence of drug. “Drug resistance” was measured as the amount of drug required to inhibit by 50% the luciferase activity detected in the absence of drug (inhibitory concentration 50%, IC50). The IC50 values were determined by plotting percent drug inhibition vs. log10 drug concentration. Stimulation of viral replication was measured as the percent increase in luciferase activity detected when infection occurs in the presence of drug as compared to in the absence of drug.
(§2) Host cells were seeded in 10-cm-diameter dishes and were transfected several days after plating with resistance test vector plasmid DNA and the envelope expression vector. Transfections were performed using a calcium-phosphate precipitation procedure. The cell culture media containing the DNA precipitate was replaced with fresh medium, from one to 24 hours, after transfection. Cell culture media containing resistance test vector viral particles was harvested one to four days after transfection and was passed through a […] filter before being used to infect target host cells, or being stored at −80° C. HIV capsid protein (p24) levels in the harvested cell culture media were determined by an EIA method as described by the manufacturer (SAIC; Frederick, Md.). Before infection, target cells (293 and 293/T) were plated in cell culture media. Control infections were performed using cell culture media from mock transfections (no DNA) or transfections containing the resistance test vector plasmid DNA without the envelope expression plasmid. One to three or more days after infection, the media was removed and cell lysis buffer (Promega) was added to each well. Cell lysates were assayed for luciferase activity (FIG. 3). The inhibitory effect of the drug was determined using the following equation:
(§3) % luciferase inhibition=1−(RLUluc[drug]÷RLUluc)×100
(§4) where RLUluc [drug] is the Relative Light Unit of luciferase activity in infected cells in the presence of drug, and RLUluc is the Relative Light Unit of luciferase activity in infected cells in the absence of drug. IC50values were obtained from the sigmoidal curves that were generated from the data by plotting the percent inhibition of luciferase activity vs. the log10 drug concentration. The percent luciferase stimulation is the negative of the % inhibition calculated using the formula above.
The M230L mutation was introduced into a wild-type (drug sensitive) resistance test vector using the mega-primer method for site-directed mutagenesis (Sakar and Sommar, Ibid.). The resulting resistance test vector containing the M230L mutation (M230L-RTV) was then tested using the phenotypic assay described earlier, and the results were compared to those determined using a genetically defined resistance test vector that was wild type at position 230. We determined the pattern of phenotypic susceptibility to the NNRTIs, delavirdine, nevirapine and efavirenz, in the M230L-RTV. […]

RTV-1046 and RTV-887 = assay: Phenotypic susceptibility assay, RTV-1046 and RTV-887; type: cell-based, HIV; details: patient ARG-014, weeks 8 and 16; Y181C and M230L present
From the text: (§5) The resistance test vectors containing a functional luciferase gene cassette were constructed and host cells were transfected with the resistance test vector DNA. The resistant test vectors contained patient-derived reverse transcriptase and protease sequences that were either susceptible or resistant to the antiretroviral agents, such as nucleoside reverse transcriptase inhibitors, (NRTIs) non-nucleoside reverse transcriptase inhibitors […] protease inhibitors. The resistance test vector viral particles produced by transfecting the resistance test vector DNA into host cells, either in the presence or absence of PRIs, were used to infect target host cells grown either in the absence of NRTIs or NNRTIs, or in the presence of increasing concentrations of the drug. The amount of luciferase activity produced in infected target host cells in the presence of varying concentrations of drug was compared to the amount of luciferase produced in infected target host cells in the absence of drug. […] The IC50 values were determined by plotting percent drug inhibition vs. log10 drug concentration. Stimulation of viral replication was measured as the percent increase in luciferase activity detected when infection occurs in the presence of drug as compared to in the absence of drug.
(§6) Host cells were seeded in 10-cm-diameter dishes and were transfected several days after plating with resistance test vector plasmid DNA and the envelope expression vector. […] HIV capsid protein (p24) levels in the harvested cell culture media were determined by an EIA method as described by the manufacturer (SAIC; Frederick, Md.). […] The inhibitory effect of the drug was determined using the following equation: […]
(§7) where RLUluc [drug] is the Relative Light Unit of luciferase activity in infected cells in the presence of drug, and RLUluc is the Relative Light Unit of luciferase activity in infected cells in the absence of drug. […] The percent luciferase stimulation is the negative of the % inhibition calculated using the formula above. […]

RTV-010829/270I = assay: Phenotypic susceptibility assay, RTV-010829/270I; type: cell-based, HIV; details: RTV-010829 with I270M reverted
From the text: as §1, §2, §3, §4
(§8) A resistance test vector containing all of the mutations present in RTV-010829 except for the V245E mutation (RTV-010829/245V) was constructed and tested using the phenotypic assay described earlier. The results were compared to those determined using the parent RTV-010829. We determined the pattern of phenotypic susceptibility to the NNRTIs, delavirdine, nevirapine and efavirenz, in the reverted vector RTV-010829/245V. […] A resistance test vector containing all of the mutations present in RTV-010829 except for the I270M (RTV-010829/270I) was constructed and tested using the phenotypic assay described earlier. […]

RTV-010829/245V-297E = assay: Phenotypic susceptibility assay, RTV-010829/245V-297E; type: cell-based, HIV; details: for drug-dependent stimulation of viral replication: RTV-010829 with V245E to E297K reverted; for reductions in susceptibility compared to wild type control RTV: RTV-010829 with V245E, I270M, V276I, R277K, V292I, V293I, E297K reverted
From the text: as §1, §2, §3, §4, §8

RTV-I135T/V245T = assay: Phenotypic susceptibility assay, RTV-I135T/V245T; type: cell-based, HIV-1; details: site-directed I135T + V245T
From the text: as §1, §2, §3, §4
(§9) A resistance test vector containing two mutations, I135T and V245T (RTV-I135T/V245T) was constructed and tested in the phenotypic assay described earlier. The results were compared to those determined using a genetically defined resistance test vector that was wild type at positions 135 and 245. We determined the pattern of phenotypic susceptibility to the NNRTIs, delavirdine, nevirapine and efavirenz, in RTV-I135T/V245T.

RTV-K103N/I135T/V245E = assay: Phenotypic susceptibility assay, RTV-K103N/I135T/V245E; type: cell-based, HIV-1; details: site-directed K103N + I135T + V245E
From the text: as §1, §2, §3, §4
as §9, with “three” for “two”, “mutations, K103N,” for “mutations,”, “V245E (RTV-K103N/I135T/V245E)” for “V245T (RTV-I135T/V245T)”, “positions 103,” for “positions”, “RTV-K103N.” for “RTV-I135T/V245T.”

RTV-309 = assay: Phenotypic susceptibility assay, RTV-309; type: cell-based, HIV; details: patient 1033 sample before any NNRTI
From the text: as §5, §6, §7

Row | SMILES | drug-dependent stimulation of viral replication (M230L-RTV) | reduction in susceptibility compared to wild type control RTV (M230L-RTV) | decrease in susceptibility (RTV-1046 and RTV-887) | drug-dependent stimulation of viral replication (RTV-010829/270I) | reductions in susceptibility compared to wild type control RTV (RTV-010829/270I) | drug-dependent stimulation of viral replication (RTV-010829/245V-297E) | reductions in susceptibility compared to wild type control RTV (RTV-010829/245V-297E) | drug-dependent stimulation of viral replication (RTV-I135T/V245T) | reductions in susceptibility compared to wild type control RTV (RTV-I135T/V245T) | drug-dependent stimulation of viral replication (RTV-K103N/I135T/V245E) | reductions in susceptibility compared to wild type control RTV (RTV-K103N/I135T/V245E) | reduction in susceptibility (RTV-309)
1 | CC(C)Nc1cccnc1N1CCN(C(=O)c2cc3cc(NS(C)(=O)=O)ccc3[nH]2)CC1 [delavirdine] | ~50% | 58 fold | > 250 fold | ~40% | 247 fold | no drug-dependent stimulation | 198 fold | ~10% | 2.5 fold | ~20% | 169 fold | wild type pattern of susceptibility
2 | O=C1Nc2ccc(Cl)cc2[C@@](C#CC2CC2)(C(F)(F)F)O1 [efavirenz] | not | 23 fold | 5 fold | ~20% | 145 fold | no drug-dependent stimulation | 76 fold | no drug-dependent stimulation | 2.4 fold | no drug-dependent stimulation and not | 93 fold | wild type pattern of susceptibility
3 | Cc1ccnc2c1NC(=O)c1cccnc1N2C1CC1 [nevirapine] | ~50% | 39 fold and 40 fold | > 600 fold | ~30% | 341 fold | no drug-dependent stimulation | 233 fold | ~10% | 4 fold | ~15% | 244 fold | 3 fold

Source: patent US6653081B2, “Methods for monitoring antiretroviral therapy and guiding therapeutic decision in the treatment of HIV/AIDS” (ViroLogic, Inc., priority 2000, dated 2003)
